Results from ChEMBL document CHEMBL1154289, “Structure based design of novel irreversible FAAH inhibitors” (Bioorg Med Chem Lett, 2009).
Active and inactive are the calls of the source. No cut-off for these calls is given here.

Experiments:
[1] = Bioavailability in rat; assay type: ADME, organism-based; details: in vivo
[2] = biological target: T1, Fatty-acid amide hydrolase 1 (Homo sapiens) (UniProt O00519); test: Inhibition of human FAAH assessed as ratio of Kinact to Ki
T1 sequence (whole entry): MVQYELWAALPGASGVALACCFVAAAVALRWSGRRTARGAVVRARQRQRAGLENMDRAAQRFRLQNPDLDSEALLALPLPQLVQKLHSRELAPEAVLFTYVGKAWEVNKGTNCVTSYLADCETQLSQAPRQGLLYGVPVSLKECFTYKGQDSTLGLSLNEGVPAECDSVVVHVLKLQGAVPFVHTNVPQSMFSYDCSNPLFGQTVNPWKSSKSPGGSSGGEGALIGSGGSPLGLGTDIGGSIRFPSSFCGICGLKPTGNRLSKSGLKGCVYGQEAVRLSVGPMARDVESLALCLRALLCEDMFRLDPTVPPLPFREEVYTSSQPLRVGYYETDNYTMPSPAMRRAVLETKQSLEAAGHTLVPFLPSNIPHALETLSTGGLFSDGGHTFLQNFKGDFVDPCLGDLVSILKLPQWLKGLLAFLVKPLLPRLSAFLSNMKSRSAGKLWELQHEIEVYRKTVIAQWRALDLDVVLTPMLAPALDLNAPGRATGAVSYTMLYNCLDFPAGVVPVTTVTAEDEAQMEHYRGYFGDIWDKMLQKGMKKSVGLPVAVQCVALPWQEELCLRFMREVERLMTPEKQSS

[3] = biological target: T2, Fatty-acid amide hydrolase 1 (Rattus norvegicus) (UniProt P97612); test: Inhibition of rat FAAH assessed as ratio of Kinact to Ki
T2 sequence (whole entry): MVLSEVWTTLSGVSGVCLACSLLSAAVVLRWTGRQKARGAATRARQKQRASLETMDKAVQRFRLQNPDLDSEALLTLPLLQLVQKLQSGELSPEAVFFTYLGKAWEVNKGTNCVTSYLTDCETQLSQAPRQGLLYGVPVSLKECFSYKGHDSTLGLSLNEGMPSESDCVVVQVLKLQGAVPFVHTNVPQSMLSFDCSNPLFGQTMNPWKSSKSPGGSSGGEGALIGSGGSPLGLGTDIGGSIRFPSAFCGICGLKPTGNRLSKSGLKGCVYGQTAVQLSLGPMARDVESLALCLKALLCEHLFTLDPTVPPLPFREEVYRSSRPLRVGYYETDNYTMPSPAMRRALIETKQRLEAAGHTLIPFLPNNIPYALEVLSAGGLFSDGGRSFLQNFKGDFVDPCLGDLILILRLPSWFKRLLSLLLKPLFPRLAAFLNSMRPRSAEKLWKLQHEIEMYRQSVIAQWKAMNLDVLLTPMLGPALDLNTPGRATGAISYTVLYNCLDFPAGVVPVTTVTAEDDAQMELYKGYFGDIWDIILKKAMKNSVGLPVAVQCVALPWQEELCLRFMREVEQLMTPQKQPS

`O=C(Nc1cccnc1)N1CC(/C=C/Cc2cccc(Oc3ccc(C(F)(F)F)cn3)c2)C1` gave a bioavailability [1] of 93%, a Ratio [2] of 9340 M⁻¹ s⁻¹ and a Ratio [3] of 2380 M⁻¹ s⁻¹.

Work on `O=C(Nc1cccnc1)N1CC(CCCc2cccc(Oc3ccc(C(F)(F)F)cn3)c2)C1` yielded a Ratio [2] of 1090 M⁻¹ s⁻¹ and a Ratio [3] of 688 M⁻¹ s⁻¹.

`O=C(Nc1cncc2[nH]ccc12)N1CC(CCCc2cccc(Oc3ccc(C(F)(F)F)cn3)c2)C1` gave a Ratio [2] of 881 M⁻¹ s⁻¹ and a Ratio [3] of 5160 M⁻¹ s⁻¹.

With `O=C(Nc1cccnc1)N1CC(C/C=C\c2cccc(Oc3ccc(C(F)(F)F)cn3)c2)C1` the Ratio [2] was 782 M⁻¹ s⁻¹ and the Ratio [3] was “inactive”.

For `O=C(Nc1cccnc1)N1CC(/C=C\Cc2cccc(Oc3ccc(C(F)(F)F)cn3)c2)C1`, the bioavailability [1] was 73%, the Ratio [2] was 9000 M⁻¹ s⁻¹ and the Ratio [3] was 5390 M⁻¹ s⁻¹.

In the case of `O=C(Nc1cccnc1)N1CC(C/C=C/c2cccc(Oc3ccc(C(F)(F)F)cn3)c2)C1`, the Ratio [2] is reported as 2100 M⁻¹ s⁻¹ and the Ratio [3] is reported as 2310 M⁻¹ s⁻¹.

`Cc1noc(NC(=O)N2CC(CCCc3cccc(Oc4ccc(C(F)(F)F)cn4)c3)C2)c1C` showed a Ratio [2] of 1450 M⁻¹ s⁻¹ and a Ratio [3] of 15300 M⁻¹ s⁻¹.

Work on `O=C(Nc1cccnc1)N1CC(C#CCc2cccc(Oc3ccc(C(F)(F)F)cn3)c2)C1` yielded a Ratio [2] of 861 M⁻¹ s⁻¹ and a Ratio [3] of 465 M⁻¹ s⁻¹.

With `O=C(Nc1cccnn1)N1CC(CCCc2cccc(Oc3ccc(C(F)(F)F)cn3)c2)C1` the Ratio [2] was 3030 M⁻¹ s⁻¹ and the Ratio [3] was 1840 M⁻¹ s⁻¹.

Compound `O=C(Nc1cccnc1)N1CC(=CCCc2cccc(Oc3ccc(C(F)(F)F)cn3)c2)C1` has a Ratio [2] of 621 M⁻¹ s⁻¹ and a Ratio [3] of 1310 M⁻¹ s⁻¹.
